Assay [1] has as its target T1, MKNK1 (Homo sapiens, UniProt Q9BUB5, T385D).
T1 construct: GST (N); purchased Carna Biosciences 02-145; host or cells: insect cells (baculovirus expression system)
The experiment in a line: MKNK1 kinase assay (MKNK1 TR-FRET assay). It counts as biochemical. Conditions: 10 μM ATP, 15 min preincubation.

Assay [2] deals with T1, MKNK1. The experiment in a line: MKNK1 kinase high ATP assay (TR-FRET-based). Conditions: 2 mM ATP, 15 min preincubation. It counts as biochemical. In a few lines:
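GST-tagged full-length human MKNK1 (aa 1-424, T344D) from insect cells, preincubated with compound 15 min at 22 °C. Reaction 30 min at 22 °C with 2 mM ATP and 0.06 μM biotinylated peptide in HEPES pH 7.5, Mg2+, DTT. Phosphopeptide detected by TR-FRET (665/622 ratio) with anti-pS6 (pSer236) antibody; normalised to no-inhibitor and no-enzyme controls.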
In general terms: In TR-FRET formats the signal depends on donor and acceptor labels being close together.

T1 sequence (Q9BUB5 1-424 isoform Q9BUB5-2 T344D): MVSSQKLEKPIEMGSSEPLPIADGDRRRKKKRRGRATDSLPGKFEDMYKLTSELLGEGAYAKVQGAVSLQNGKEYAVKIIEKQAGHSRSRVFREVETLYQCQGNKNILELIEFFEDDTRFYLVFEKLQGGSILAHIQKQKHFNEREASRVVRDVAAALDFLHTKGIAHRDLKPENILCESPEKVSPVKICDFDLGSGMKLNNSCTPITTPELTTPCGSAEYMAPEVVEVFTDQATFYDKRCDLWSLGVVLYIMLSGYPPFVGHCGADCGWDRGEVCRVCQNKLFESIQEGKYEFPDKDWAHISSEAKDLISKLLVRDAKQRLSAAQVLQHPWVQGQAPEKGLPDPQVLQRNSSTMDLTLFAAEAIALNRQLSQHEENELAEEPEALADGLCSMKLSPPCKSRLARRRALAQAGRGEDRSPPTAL

As usually defined, the IC50 is the concentration that gives 50% inhibition. Low readings indicate greater potency in that assay, high ones weaker potency in that assay. With `CN(C)[C@H]1CCN(c2nccc3oc(-c4cnc5ccc(OCCCS(C)(=O)=O)nn45)cc23)C1` [III-114, (3S)-N,N-dimethyl-1-(2-{6-[3-(methylsulfonyl)propoxy]imidazo[1,2-b]pyridazin-3-yl}furo[3,2-c]pyridin-4-yl)pyrrolidin-3-amine], the IC50 was determined as 10.4 nM against MKNK1 [1] (Table 1c) and 23.4 nM at MKNK1 [2] (Table 2c).
`O=C(c1cnoc1)N1CCC[C@H]1CCOc1ccc2ncc(-c3cc4ccccc4o3)n2n1` [Example I-45, [(2S)-2-(2-{[3-(1-Benzofuran-2-yl)imidazo[1,2-b]-pyridazin-6-yl]oxy}ethyl)pyrrolidin-1-yl](1,2-oxazol-4-yl)methanone]: the values for the concentration for half-maximal inhibition (IC50) at MKNK1 [1] (Table 1a) and against MKNK1 [2] (Table 2a) were 1.3 nM and 1.8 nM, respectively.
`O=C(Cc1ccccc1)NCCOc1ccc2ncc(-c3cc4ccccc4o3)n2n1` [Example I-75, N-(2-{[3-(1-Benzofuran-2-yl)imidazo[1,2-b]-pyridazin-6-yl]oxy}ethyl)-2-phenylacetamide]: the IC50 against MKNK1 [1] (Table 1a) was determined as 6 nM; on MKNK1 [2] (Table 2a) it was 17.7 nM.
For `O=C1CCCN1CCCOc1ccc2ncc(-c3cc4ccccc4o3)n2n1` [Example I-22, 1-(3-{[3-(1-Benzofuran-2-yl)imidazo[1,2-b]pyridazin-6-yl]oxy}propyl)pyrrolidin-2-one] the same measures were 12.6 nM and 18.6 nM.
In the case of `CC1(C)CN(c2nccc3oc(-c4cnc5ccc(OCCCS(C)(=O)=O)nn45)cc23)CCN1` [III-131, 3-[4-(3,3-dimethylpiperazin-1-yl)furo[3,2-c]pyridin-2-yl]-6-[3-(methylsulfonyl)propoxy] imidazo[1,2-b]pyridazine], the IC50 came out at 11.9 nM against MKNK1 [1] (Table 1c) and 7 nM on MKNK1 [2] (Table 2c).
For `CN1CCN(c2nccc3oc(-c4cnc5ccc(OCCCS(C)(=O)=O)nn45)cc23)CC1` [III-43, 3-[4-(4-Methylpiperazin-1-yl)furo[3,2-c]pyridin-2-yl]-6-[3-(methylsulfonyl)-propoxy]imidazo[1,2-b]pyridazine] the same measures were 5.7 nM and 5.3 nM.
With `CC1(C)CN(c2nccc3oc(-c4cnc5ccc(O[C@H]6C[C@H](N)C6)nn45)cc23)CCO1` [III-129, trans-3-({3-[4-(2,2-dimethylmorpholin-4-yl)furo[3,2-c]pyridin-2-yl]imidazo[1,2-b]pyridazin-6-yl}oxy)cyclobutanamine], the values for the IC50 against MKNK1 [1] (Table 1c) and against MKNK1 [2] (Table 2c) were 16.8 nM and 14.1 nM, respectively.
On the same counts, the results for `CS(=O)(=O)CCCOc1ccc2ncc(-c3cc4c(N5CCC(CO)CC5)nccc4o3)n2n1` [III-57, [1-(2-{6-[3-(Methylsulfonyl)propoxy]imidazo[1,2-b]pyridazin-3-yl}furo[3,2-c]pyridin-4-yl)piperidin-4-yl]methanol] are 1.5 nM and 3.6 nM.
Turning to `O=C1NCCN1CCOc1ccc2ncc(-c3cc4ccccc4o3)n2n1` [Example I-18, 1-(2-{[3-(1-Benzofuran-2-yl)imidazo[1,2-b]pyridazin-6-yl]oxy}ethyl)-imidazolidin-2-one], the IC50 against MKNK1 [1] (Table 1a) is 7.1 nM; against MKNK1 [2] (Table 2a), 13.8 nM.
On the same counts, the results for `O=C(C1CCC1)N1CCC[C@H]1CCOc1ccc2ncc(-c3cc4ccccc4o3)n2n1` [Example I-54, [(2S)-2-(2-{[3-(1-Benzofuran-2-yl)imidazo[1,2-b]-pyridazin-6-yl]oxy}ethyl)pyrrolidin-1-yl](cyclobutyl)methanone] are 2 nM and 3.7 nM.
On to `C[C@H](N)COc1ccc2ncc(-c3cc4c(N5CCOC(C)(C)C5)nccc4o3)n2n1` [III-128, (2S)-1-({3-[4-(2,2-dimethylmorpholin-4-yl)furo[3,2-c]pyridin-2-yl]imidazo[1,2-b]pyridazin-6-yl}oxy)propan-2-amine], for which the values for the IC50 against MKNK1 [1] (Table 1c) and at MKNK1 [2] (Table 2c) were 12.8 nM and 11.8 nM, respectively.
`CC(C)Oc1nccc2oc(-c3cnc4ccc(OC[C@H]5CNCC(=O)N5)nn34)cc12` [IV-13, (6R)-6-[({3-[4-(Propan-2-yloxy)furo[3,2-c]pyridin-2-yl]imidazo[1,2-b]pyridazin-6-yl}oxy)methyl]piperazin-2-one]: the IC50 came to 22 nM on MKNK1 [1] (Table 1d) and 43 nM on MKNK1 [2] (Table 2d).
As to `O=C1CC[C@H](COc2ccc3ncc(-c4cc5c(N6CCC(CO)CC6)nccc5o4)n3n2)N1` [III-77, (5R)-5-{[(3-{4-[4-(Hydroxymethyl)piperidin-1-yl]furo[3,2-c]pyridin-2-yl}imidazo[1,2-b]pyridazin-6-yl)oxy]methyl}pyrrolidin-2-one], the values for the IC50 against MKNK1 [1] (Table 1c) and at MKNK1 [2] (Table 2c) were 0.7 nM and 1.1 nM, respectively.
`CC(C)Oc1nccc2oc(-c3cnc4ccc(OC[C@H]5CCC(=O)N5)nn34)cc12` [IV-4, (5R)-5-[({3-[4-(Propan-2-yloxy)furo[3,2-c]pyridin-2-yl]imidazo[1,2-b]pyridazin-6-yl}oxy)methyl]pyrrolidin-2-one]: the IC50 on MKNK1 [1] (Table 1d) worked out at 2 nM; on MKNK1 [2] (Table 2d), 4 nM.
As to `C[C@@H](N)COc1ccc2ncc(-c3cc4c(N5CCOC[C@@H]5C)cccc4o3)n2n1` [II-75, (2R)-1-[(3-{4-[(3S)-3-methylmorpholin-4-yl]-1-benzofuran-2-yl}imidazo[1,2-b]pyridazin-6-yl)oxy]propan-2-amine], the IC50 is 23 nM at MKNK1 [1] (Table 1b) and 25.7 nM against MKNK1 [2] (Table 2b).
Consider `O=C(c1ccon1)N1CCC[C@H]1CCOc1ccc2ncc(-c3cc4ccccc4o3)n2n1` [Example I-55, [(2S)-2-(2-{[3-(1-Benzofuran-2-yl)imidazo[1,2-b]-pyridazin-6-yl]oxy}ethyl)pyrrolidin-1-yl](1,2-oxazol-3-yl)methanone], for which the IC50 stood at 2.1 nM at MKNK1 [1] (Table 1a) and 3.8 nM against MKNK1 [2] (Table 2a).
Take `C[C@H]1CNCCN1c1cccc2oc(-c3cnc4ccc(OCC(F)(F)F)nn34)cc12` [II-29, 3-{4-[(2S)-2-methylpiperazin-1-yl]-1-benzofuran-2-yl}-6-(2,2,2-trifluoroethoxy)im-idazo[1,2-b]pyridazine]: the values for the IC50 against MKNK1 [1] (Table 1b) and on MKNK1 [2] (Table 2b) were 5.4 nM and 2.7 nM, respectively.
`CN(C)[C@@H]1CCN(c2nccc3oc(-c4cnc5ccc(O[C@H]6C[C@H](N)C6)nn45)cc23)C1` [III-98, (3R)-1-(2-{6-[(trans-3-Aminocyclobutyl)oxy]imidazo[1,2-b]pyridazin-3-yl}furo[3,2-c]pyridin-4-yl)-N,N-dimethylpyrrolidin-3-amine]: the half-inhibitory concentration (IC50) at MKNK1 [1] (Table 1c) is 1.6 nM; at MKNK1 [2] (Table 2c), 3.3 nM.
On the same counts, the results for `CC1(C)CN(c2nccc3oc(-c4cnc5ccc(OC[C@H]6CCC(=O)N6)nn45)cc23)CCN1` [III-141, (5R)-5-[({3-[4-(3,3-dimethylpiperazin-1-yl)furo[3,2-c]pyridin-2-yl]imidazo[1,2-b]pyridazin-6-yl}oxy)methyl]pyrrolidin-2-one] are 3.3 nM and 1.4 nM.
Consider `CN(C)C(=O)COc1ccc2ncc(-c3cc4ccccc4o3)n2n1` [Example I-36, 2-{[3-(1-Benzofuran-2-yl)imidazo[1,2-b]pyridazin-6-yl]oxy}-N,N-dimethyl-acetamide], for which the IC50 against MKNK1 [1] (Table 1a) stood at 15.1 nM; at MKNK1 [2] (Table 2a), 56.2 nM.
Turning to `COC[C@@H]1CCCN1c1nccc2oc(-c3cnc4ccc(OC[C@H](C)N)nn34)cc12` [III-27, (2S)-1-[(3-{4-[(2S)-2-(Methoxymethyl)pyrrolidin-1-yl]furo[3,2-c]pyridin-2-yl}imidazo[1,2-b]pyridazin-6-yl)oxy]propan-2-amine], the IC50 was determined as 31.1 nM against MKNK1 [1] (Table 1c) and 97.5 nM at MKNK1 [2] (Table 2c).
For `CN(CCCO)c1nccc2oc(-c3cnc4ccc(O[C@H]5C[C@H](N)C5)nn34)cc12` [III-105, 3-[(2-{6-[(trans-3-Aminocyclobutyl)oxy]imidazo[1,2-b]pyridazin-3-yl}furo-[3,2-c]pyridin-4-yl)(methyl)amino]propan-1-ol] the same measures were 2.1 nM and 7.3 nM.
As for `C[C@@H]1COCCN1c1cccc2oc(-c3cnc4ccc(O[C@H]5C[C@H](N)C5)nn34)cc12` [II-50, trans-3-[(3-{4-[(3R)-3-methylmorpholin-4-yl]-1-benzofuran-2-yl}imidazo[1,2-b]pyridazin-6-yl)oxy]cyclobutanamine], the IC50 is 39.1 nM against MKNK1 [1] (Table 1b) and 50.6 nM on MKNK1 [2] (Table 2b).
Consider `O=C1CC[C@H](COc2ccc3ncc(-c4cc5c(N6CCCCC6)nccc5o4)n3n2)N1` [III-62, (5R)-5-[({3-[4-(Piperidin-1-yl)furo[3,2-c]pyridin-2-yl]imidazo[1,2-b]pyridazin-6-yl}oxy)methyl]pyrrolidin-2-one], for which the IC50 against MKNK1 [1] (Table 1c) was 2.4 nM; against MKNK1 [2] (Table 2c), 1 nM.
On the same counts, the results for `COc1ccc2ncc(-c3cc4c(N5CCO[C@H](C)C5)nccc4o3)n2n1` [III-120, 6-methoxy-3-{4-[(2R)-2-methylmorpholin-4-yl]furo[3,2-c]pyridin-2-yl}imidazo[1,2-b]pyridazine] are 11.2 nM and 7.4 nM.
On the same counts, the results for `CC1(C)CN(c2nccc3oc(-c4cnc5ccc(OC[C@@H]6CCC(=O)N6)nn45)cc23)CCN1` [III-134, (5S)-5-[({3-[4-(3,3-dimethylpiperazin-1-yl)furo[3,2-c]pyridin-2-yl]imidazo[1,2-b]pyridazin-6-yl}oxy)methyl]pyrrolidin-2-one] are 2 nM and 1 nM.
For `CN(CCCN1CCCC1)c1nccc2oc(-c3cnc4ccc(O[C@H]5C[C@H](N)C5)nn34)cc12` [III-97, 2-{6-[(trans-3-Aminocyclobutyl)oxy]imidazo[1,2-b]pyridazin-3-yl}-N-methyl-N-[3-(pyrrolidin-1-yl)propyl]furo[3,2-c]pyridin-4-amine] the same measures were 5.6 nM and 21 nM.

These data come from US20160287589A1, “SUBSTITUTED-IMIDAZOPYRIDAZINES” (BAYER PHARMA AKTIENGESELLSCHAFT, priority 2013, published 2016).
